Reference: patent publication US9452036B2, “Dental ultrasonic drug delivery system and dental ultrasonic drug delivery method” (priority 2009, dated 2016)

How the values were obtained:
[1] = In-vitro test for drug permeation in root canal using ultrasound and nanobubbles (extracted canine tooth, fluorescence); format: in vitro ADME
Description: After an extracted canine tooth had been subjected to access cavity preparation and root canal enlargement (to #60) by common methods, a smear layer was removed with a Smear Clean (Nippon Shika Yakuhin Co., Ltd.), and the tooth was refrigerated in a saline solution until being used in an experiment. Then, the inside of the root canal was sufficiently dried with a cotton plug. Thereafter, to prevent a drug solution from leaking from the root canal, an apical area was filled with a Unifast III (GC Corporation). Subsequently, nanobubbles were diluted with a saline solution such that the concentration of the nanobubbles is 5% or 10% (where the bubble concentration will be expressed in terms of vol % hereinafter), thereby preparing a drug solution containing 4.5 mg/ml tetracycline (SIGMA088K0680). The 5% nanobubbles herein mean that the concentration of the nanobubbles is 6×10^8/ml. The 10% nanobubbles herein mean that the concentration of the nanobubbles is 1.2×10^9/ml. Since even a small amount of deposited tetracycline produces fluorescence when irradiated with ultraviolet radiation, a deposition site can be easily detected with a fluorescence microscope. As a control, microbubbles (Optison (Molecular Biosystems Inc., San Diego)) were used, and a 5% or 10% drug solution was used. The 5% microbubbles herein mean that the concentration of the microbubbles is 6×10^8/ml. The 10% microbubbles herein mean that the concentration of the microbubbles is 1.2×10^9/ml. Then, 20 μl of the drug solution was applied into the root canal, and using an ultrasound generator (SonoPore KTAC-4000), an ultrasonic device with a diameter of 1 mm of a detachable irradiation tube propagation type probe (i.e., an applicator type in which a Langevin transducer is provided inside a probe body) was inserted into the root canal, and the device was operated. Operating conditions were that the voltage was 30 V (0.13-0.20 W indicated by a meter) or 31 V, the frequency was 1.186 MHz, the burst rate was 18.8 Hz, the pulse-duty ratio was 50%, and the application time was 120 seconds. After a lapse of the application time, the dilution solution was sufficiently removed with a cotton plug, and then a section with a thickness of 150 μm was prepared with a saw microtome (Leica SP1600), and a microscopic examination was performed with a stereomicroscope under ultraviolet irradiation. The degree of delivery of the drug into dentin tubules was observed based on fluorescence reaction.

[2] = test system: kanamycin-resistant enterococcus faecalis (lactococcus); test: In vivo tubule sterilization test using ultrasound and nanobubbles (canine tooth root canal)
Method: After a canine tooth had been subjected to access cavity preparation and root canal enlargement (to #60) in vivo by common methods, a smear layer was removed with a Smear Clean (Nippon Shika Yakuhin Co., Ltd.). Then, the inside of the root canal was sufficiently dried with a cotton plug. Thereafter, 10 μl of a bacterial culture (a brain heart infusion (BHI) broth, Nissui Pharmaceuticals Co., Ltd., containing kanamycin) in which kanamycin-resistant enterococcus faecalis (lactococcus) subjected to gene transfer of pEGFP-C1 (clontech) was cultured was injected into each root canal. Subsequently, the root canal was temporarily sealed with zinc phosphate cement. Then, after 7 days, the root canal was irrigated with 3 ml of a saline solution. Thereafter, 20 μl of a drug solution containing 10% nanobubbles and 50 μg/ml of ampicillin was applied into the root canal. Then, with an ultrasound generator (SonoPore KTAC-4000), an ultrasonic device with a diameter of 1 mm of a detachable irradiation tube propagation type probe (i.e., an applicator type in which a Langevin transducer is provided inside a probe body) was inserted into the root canal, and ultrasound was delivered at a voltage of 30 V, a frequency of 1.186 MHz, a burst rate of 18.8 Hz, and a pulse-duty ratio of 50% for an application time of 120 seconds. […]

E. Coli = test: In vitro tubule sterilization test using sodium hypochlorite and nanobubbles (extracted bovine teeth); format: cell-based; conditions: for OD600 value: paper point cultured 12 hours
Method: Using ten extracted bovine teeth (anterior teeth), the apical area of each of the teeth was filled with photopolymerization type ionomer cement. Then, the inside of the root cavity was treated with 6% sodium hypochlorite, irrigated, and sterilized with an autoclave. Thereafter, the inside of the root canal was sufficiently irrigated with a sterilized saline solution, dried with a paper point, filled with an E. Coli saturated solution, and then cultured in a humidity bath at 37° C. for a night. Then, the E. Coli solution in the root canal was sucked with a paper point, and the root canal was filled with an irrigation solution and 1% or 0.1% sodium hypochlorite. Thereafter, 5% nanobubbles were injected into the root canal, and ultrasound was applied thereto at a voltage of 30 V, a frequency of 1.186 MHz, a burst rate of 18.8 Hz, and a pulse-duty ratio of 50% for 120 seconds. Subsequently, the root canal was sufficiently irrigated with a saline solution, and the tooth was left for one minute with a paper point inserted into the root canal. Then, the paper point was cultured. After 12 hours, the amount of bacteria was measured with an absorbance OD600.

## CN(C)[C@@H]1C(O)=C(C(N)=O)C(=O)[C@@]2(O)C(O)=C3C(=O)c4c(O)cccc4[C@@](C)(O)[C@H]3C[C@@H]12 [tetracycline]
[1]; 5% microbubbles, no ultrasound (FIG. 21E)
  degree of delivery of the drug to dentin tubules: insufficient
[1]; 5% microbubbles, ultrasound 30 V (FIG. 21D)
  degree of delivery of the drug to dentin tubules: insufficient
[1]; 5% nanobubbles, no ultrasound (FIG. 21C)
  degree of delivery of the drug to dentin tubules: insufficient
[1]; 5% nanobubbles, ultrasound 30 V, 120 seconds, 4.5 mg/ml tetracycline (FIG. 21A)
  degree of delivery of the drug to dentin tubules: high
[1]; 5% nanobubbles, ultrasound 31 V (FIG. 21B)
  degree of delivery of the drug to dentin tubules: insufficient
[1]; 10% microbubbles, no ultrasound (FIG. 22E)
  degree of delivery of the drug to dentin tubules: insufficient
[1]; 10% microbubbles, ultrasound 30 V (FIG. 22D)
  degree of delivery of the drug to dentin tubules: insufficient
[1]; 10% nanobubbles, no ultrasound (FIG. 22C)
  degree of delivery of the drug to dentin tubules: insufficient
[1]; 10% nanobubbles, ultrasound 30 V, 120 seconds, 4.5 mg/ml tetracycline (FIG. 22A)
  degree of delivery of the drug to dentin tubules: high
[1]; 10% nanobubbles, ultrasound 31 V (FIG. 22B)
  degree of delivery of the drug to dentin tubules: insufficient
[1]; bubble concentrations of 5% and 10%
  drug permeation with nanobubbles compared with microbubbles: more significantly permeates
[1]; ultrasound 30 V (FIGS. 21A and 22A)
  degree of delivery of the drug to dentin tubules, 10% nanobubbles compared with 5% nanobubbles: higher

## CC1(C)S[C@@H]2[C@H](NC(=O)[C@H](N)c3ccccc3)C(=O)N2[C@H]1C(=O)O [ampicillin]
[2]; 50 μg/ml ampicillin delivered using 10% nanobubbles and ultrasound 30 V, 120 seconds, fourth day (FIG. 25A)
  bacteria in the lateral wall of the root canal: no bacteria were observed
[2]; only ampicillin, fourth day (FIG. 25B)
  bacteria in the lateral wall of the root canal: bacteria were not completely killed

## OCl [sodium hypochlorite]
E. Coli; 0.1% sodium hypochlorite
  sterilization of the inside of the root canal: sterilized only in the presence of 5% nanobubbles
E. Coli; 1% sodium hypochlorite, irrespective of the presence of 5% nanobubbles
  bactericidal effect in the root canal: a bactericidal effect was obtained
E. Coli; sodium hypochlorite 1.0, 5% nanobubbles +, ultrasound 30 V 120 seconds
  OD600 value: 0
E. Coli; sodium hypochlorite 1.0, 5% nanobubbles −
  OD600 value: 0
